The record followed here is patent US7449495B2, “Retinoid derivatives with antiangiogenic, antitumoral and proapoptotic activities” (Sigma-Tau Industrie Farmaceutiche Riunite S.p.A., priority 2001, dated 2008).

In one series the test system is BMEC cells. Kind of series: Endothelial BMEC cells chemotaxis (Boyden chamber). As to conditions: 50 and 25 μM. It is filed as cell-based, bovine. How it is done: The capacity of ST1879 to inhibit cellular migration through the polycarbonate filter in the direction of the chemoattractant factor, was quantitatively evaluated by counting the number of cells present on the lower side of the filter. The percentages of migration reported in table 8 were calculated according to the formula: (treated−control/control)×100.

Series [1] has as its system Murine pulmonary adenocarcinoma Madison 109 (M109). The series can be described thus: Antitumoral activity in murine pulmonary carcinoma model M109. It is filed as in vivo, BALB/c mouse. As to conditions: qdx5x3w; for TVI %: 2 days after final administration. How it is done:
Murine pulmonary adenocarcinoma Madison 109 cells (M109) were maintained by s.c. passage of tumor fragments. The day of inoculation, the cell suspension was injected i.m. in the rear left limb of a 20 g male BALB/c mouse at a density of 3×10^5 cells/mouse. 3LL murine Lewis lung carcinoma was routinely maintained by i.m. passages (every 10-14 days) of 1×10^5 cells/mouse in C57BL/6J mice. For antitumor activity experiments, tumors were excised from donor mice and after mechanical desegregation and enzymatic digestion tumor cell viability was assessed by the trypan blue dye exclusion test. Then, 1×10^5 cells/100 μl/mouse were injected i.m. into the right hind leg muscle of C57BL/6J mice.
Tumor dimension measurements were performed using a digital calliper (Vernier Caliper) from the day in which the mass became measurable, twice weekly. The tumor mass was assessed from the size of the two principal dimensions (length and breadth), expressed in mm, applying the formula (length×breadth^2)/2 that is, the tumor volume in mm3. For every experimental group the percentage of inhibition of tumor volume (TVI %) was calculated, with respect to that of the control that is (100−(T/C %). TVI was evaluated 2 days after the final administration of ST1926.
The mean survival time (MST) was also measured and the increase in mean life-span expressed as ILS % (increase of life span) calculated as (MSTT/MSTC)×100−100.
The comparison between the values of TVI and of survival time, obtained for each group were performed with the non parametric Mann Whitney test for non paired data, using the Instat software from GraphPad inc.
The ST1926 solution was prepared immediately before use and solubilised in cremophor:ethanol 1:1 and subsequently diluted 1:4 in buffered saline solution. The treatments of the animals were carried out in a volume of 10 ml/kg. The treatment scheme for ST1926 at different doses was for 5 consecutive days (qdx5), beginning 1 day after the inoculation with the tumoral cells and was repeated for 3 cycles.
The mice (8 for each group) were weighed prior to each treatment, firstly, so as to be able to administer the correct quantity of substance, based on the eventual variations in weight observed throughout the period of drug administration, and also to be able to register the maximum weight loss throughout the treatment (BWL % max).

For a further series, the system named is Human melanoma MeWo. Kind of series: Cytotoxicity test (sulphorodamine B), MeWo. It is filed as cell-based. As to conditions: 24 h incubation, survival 48 h after removal. The text has this:
Different cell lines deriving from solid tumors were also used. • 1. Human prostate carcinoma PC3 and DU145. These cell lines were maintained in RPMI 1640 medium containing 10% FCS, 1% sodium pyruvate and 1% glutamine; • 2. Human colon adenocarcinoma LoVo. This cell line was maintained in HAM's F-12 medium, containing 10% FCS and 1% glutamine. • 3. Human ovarian carcinoma such as A2780 and A2780/Dx, sensitive and resistant to drugs, respectively (doxorubicin, taxol, etoposide, vincristine); IGROV-1 and IGROV-1/Pt, sensitive and resistant to platinum-based chemotherapy, respectively, were maintained in RPMI 1640 medium containing 10% FCS, 1% sodium pyruvate and 1% glutamine; • 4. Human melanoma MeWo and MeS 2.21, glioblastoma GBM, no small cell lung carcinomas A431, NCI—H460, osteosarcomas SAOS and U2OS were maintained in RPMI 1640 medium containing 10% FCS, 1% sodium pyruvate and 1% glutamine.
The cytotoxicity tests were carried out using NB4 or HL-60 cells in suspension (10000/well). The cells were seeded in a volume of 250 μl in 96 well plates and incubated for 24 hours at 37° C. […] The optical density was measured using a Multiskan spectrophotometer at 540 nm. […]
Cell survival was determined by incubation with ST1926 for 24 hours, 48 hours after the removal of the compound. […]

By IC50 is commonly meant the point on the concentration scale where inhibition reaches its midpoint. A low value points to greater potency in that assay.

With `O=C(O)/C=C/c1ccc(-c2ccc(O)c(C34CC5CC(CC(C5)C3)C4)c2)cc1` [ST1926, E-4-(3-(1-adamantyl)-4-hydroxyphenyl)cinnamic acid], the “chemotaxis of the BMEC cells towards FCS (in words)” value in the series with BMEC cells is “inhibition of chemotaxis”. In series [1] (M109, 10 mg/kg i.p.), the “BWL % Max” value is given as 9%, the ILS % turned out to be 27%, the “MST (range days)” value is “*28 (25-35) days” and the TVI % came out at 18%. In addition, in series [1] (M109, 10 mg/kg p.o.), the “BWL % Max” value worked out at 10%, the ILS % is 59%, the “MST (range days)” value is reported as “**35 (27-42) days” and the TVI % entry is “*49%”. Moreover, in series [1] (M109, 15 mg/kg i.p.), the “BWL % Max” value turned out to be 10%, the ILS % was found to be 64%, the “MST (range days)” value was “**36 (30-42) days” and the TVI % result is reported as “*46%”. This compound also came in with an IC50 in the series with Human melanoma MeWo of 230 nM.
